Consider two compounds from patent US9351955B2, “Compounds and pharmaceutical compositions thereof for the treatment of cystic fibrosis” (Galapagos NV, priority 2013, dated 2016).

As a reminder, the EC50 is the concentration that produces a half-maximal response. By AUC(0-t) is commonly meant the area under the concentration-time curve up to a stated or last time point. A higher AUC(0-t) goes with high exposure.

Data set [1] addresses T1, CFTR ΔF508 mutant (Homo sapiens, UniProt P13569, DEL508-508).
T1 construct: expressed in transfected cells; host or cells: CFBE41o- (adenoviral transduction)
Description: YFP-halide influx assay for the CFTR-ΔF508 mutation (96 well, CFBE41o- cells). It counts as cell-based. Conditions: compounds of the invention, 96 well, forskolin 10.67 μM, read-out: EC50 measured by YFP-halide influx assay for the CFTR-ΔF508. The method in brief: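 CFBE41o- cells were adenovirally transduced with CFTR ΔF508 and the halide-sensitive YFP H148Q/I152L. They were then corrected either at 27 °C for 24 h or with a CFTR modulator for 24 h at 37 °C. After iodide injection, YFP quenching over 7 s was expressed as 1−F/F0, and EC50 was derived from the concentration–response plot.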

Data set [2] addresses T1, CFTR ΔF508 mutant. The experiment in a line: YFP-halide influx assay for the CFTR-ΔF508 mutation (384 well, CFBE41o- cells, FDSS/μCell). It counts as cell-based. Conditions: forskolin 10.67 μM, fluorescence after 36 seconds, read-out: EC50 measured by YFP-halide influx assay for the CFTR-ΔF508. The method in brief:
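CFBE41o- cells were adenovirally transduced with ΔF508 CFTR and the YFP H148Q/I152L reporter. Cells were then held 24 h at 27 °C or treated 24 h at 37 °C with a CFTR modulator. Iodide-induced quench was recorded for 2 min, and EC50 was derived from 1−F/F0 at 36 s against compound concentration.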

Data set [3] addresses T2, CFTR G551D mutant (Homo sapiens, UniProt P13569, G551D).
T2 construct: expressed in transfected cells; host or cells: HEK293 (reverse transfection with plasmids)
The experiment in a line: YFP-halide influx assay for the CFTR-G551D mutation (HEK293 cells). Conditions: HEK293 cells expressing CFTR G551D and YFP reporter; forskolin 10.67 μM; read-out: EC50 measured by YFP-halide influx assay for the CFTR-G551D. Format: cell-based. Summed up: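 HEK293 cells reverse-transfected with CFTR G551D and halide-sensitive YFP, expressed 24 h at 37 °C. Iodide-induced fluorescence quench recorded for 7 s after I^− injection; response as 1−F/F0, EC50 from concentration plot.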

Data set [4] can be described thus: Lung distribution study. The settings on record: male, Sprague-Dawley, rat, plasma, oral, 10 mg/kg, exposure values. Format: in vivo, Sprague-Dawley rats. The protocol: Sprague-Dawley rats (male, 5-6 weeks old) are obtained from Janvier (France). Rats are acclimatized for at least 5 days before treatment and are kept on a 12 h light/dark cycle. Temperature is maintained at approximately 22° C., and food and water are provided ad libitum. Two days before administration of the test compounds, rats may undergo surgery to place a catheter in the jugular vein under isoflurane anesthesia. After the surgery, rats are housed individually. Rats are deprived of food for at least 16 h before oral dosing and 6 h after. Water is provided ad libitum.
8.7.3. Lung Distribution Studies
Compounds are formulated in 0.5% methylcellulose and EtOH/PEG 200/Methylcellulose 0.5% (10/25/65 v/v/v) by the oral route. Test compounds are orally dosed as a single esophageal gavage at 10 mg/kg under a dosing volume of 5 mL/kg. Each group consists of 12 rats. At each time point, typically 1, 3, 6 and 24 h, animals are euthanized and blood and lung samples are collected. Whole blood samples are centrifuged at 1500 g for 10 min and the resulting plasma samples, along with the lung samples, are stored at −20° C. pending analysis.
8.7.4. Quantification of Compound Levels in Plasma and Lung Samples
Lung samples are milled in the presence of ceramic beads and proteins present in plasma and lung samples are precipitated with an organic solvent. Concentrations of each test compound are determined by an LC-MS/MS method in which the mass spectrometer is operated in positive or negative electrospray mode.
For each animal, the lung-to-plasma ratio is determined as the ratio between compound concentration in lung and in plasma. At each sampling time point, mean, standard error of the mean (sem) and coefficient of variation (CV %) are calculated using data from three animals.

For data set [5], the target named is CFTR G551D (Homo sapiens, UniProt P13569, G551D). Description: TECC assay, FRT cells stably transfected with G551D CFTR. Format: cell-based. The settings on record: high expression CFTR-G551D cells, several values in a cell = repeat determinations. The protocol:
7.2.3. FRT-CFTR G551D Protocol
For G551D recordings, Fish Rat Thyroid (FRT) cells stably transfected with G551D CFTR (a low CFTR-G551D expressing cell line and a high expressing CFTR-G551D cell line from Rosalind Franklin University of medicine and science, Chicago, Ill.) are plated on Transwell supports (Costar 6.5 mm Diameter, […]). The cells are grown for 8-10 d under liquid-liquid interface conditions prior to electrophysiological readings. For electrophysiological recording, the FRT-G551D cells are mounted in the TECC heating plate for electrophysiological measurement and kept at 37° C. The epithelia are bathed in hepes buffered culturing medium without FBS on both the basolateral and apical sides. Apical amiloride is used to inhibit the endogenous ENaC currents while forkolin is applied on both apical and basolateral side to stimulate CFTR. After forskolin triggering, compounds are added on both sides to test their potential for increasing CFTR gating. Measurements are done during a 10 minute timeframe with recordings every 2 min. The increase in ISC is used as a measure for the increased CFTR activity, EC50 values can be generated by measuring impact of different concentrations of compound on ISC on the cells, for this purpose each transwell is treated with a different compound concentration. Inh-172, an inhibitor specific for CFTR, is used to test the specificity of the tested compounds.
When subjected to this protocol, the following EC50 are measured.

T1 sequence (P13569 with tags, fused parts or gaps DEL508-508): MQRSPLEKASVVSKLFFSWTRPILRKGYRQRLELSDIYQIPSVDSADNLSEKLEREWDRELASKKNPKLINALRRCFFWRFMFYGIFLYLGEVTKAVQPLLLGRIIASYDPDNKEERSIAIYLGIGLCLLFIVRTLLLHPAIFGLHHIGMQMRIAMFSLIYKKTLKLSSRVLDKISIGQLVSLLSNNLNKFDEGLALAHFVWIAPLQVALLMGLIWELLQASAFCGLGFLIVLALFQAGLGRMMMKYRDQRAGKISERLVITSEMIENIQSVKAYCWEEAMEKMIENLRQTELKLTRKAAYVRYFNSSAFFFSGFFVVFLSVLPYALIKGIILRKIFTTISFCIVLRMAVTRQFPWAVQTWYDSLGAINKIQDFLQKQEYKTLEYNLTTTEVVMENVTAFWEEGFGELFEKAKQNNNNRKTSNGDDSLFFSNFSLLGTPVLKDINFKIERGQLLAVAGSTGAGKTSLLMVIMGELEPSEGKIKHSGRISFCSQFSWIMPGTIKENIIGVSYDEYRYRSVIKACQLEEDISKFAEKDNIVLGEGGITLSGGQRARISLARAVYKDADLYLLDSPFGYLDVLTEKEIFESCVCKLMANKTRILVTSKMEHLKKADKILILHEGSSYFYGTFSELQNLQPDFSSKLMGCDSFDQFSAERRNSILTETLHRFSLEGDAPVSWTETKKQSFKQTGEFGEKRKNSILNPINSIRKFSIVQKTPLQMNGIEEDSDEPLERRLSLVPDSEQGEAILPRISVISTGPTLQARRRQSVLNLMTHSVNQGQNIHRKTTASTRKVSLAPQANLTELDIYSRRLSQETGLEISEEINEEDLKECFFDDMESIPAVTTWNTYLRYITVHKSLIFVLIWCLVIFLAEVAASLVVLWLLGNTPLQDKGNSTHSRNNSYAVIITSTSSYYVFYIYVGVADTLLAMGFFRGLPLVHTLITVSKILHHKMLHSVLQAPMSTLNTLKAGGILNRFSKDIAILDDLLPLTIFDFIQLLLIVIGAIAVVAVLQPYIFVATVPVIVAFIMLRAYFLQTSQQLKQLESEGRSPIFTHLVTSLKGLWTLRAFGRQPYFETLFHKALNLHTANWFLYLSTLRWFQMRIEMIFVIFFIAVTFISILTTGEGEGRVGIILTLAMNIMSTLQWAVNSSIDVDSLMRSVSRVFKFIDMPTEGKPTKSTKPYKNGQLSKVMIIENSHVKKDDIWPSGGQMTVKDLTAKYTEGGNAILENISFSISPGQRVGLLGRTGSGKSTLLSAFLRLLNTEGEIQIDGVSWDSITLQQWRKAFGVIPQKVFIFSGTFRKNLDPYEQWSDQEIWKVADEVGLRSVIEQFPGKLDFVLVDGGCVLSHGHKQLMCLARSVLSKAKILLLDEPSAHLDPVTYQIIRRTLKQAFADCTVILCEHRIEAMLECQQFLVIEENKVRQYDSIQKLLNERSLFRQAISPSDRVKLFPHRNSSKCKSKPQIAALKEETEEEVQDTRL
T2 sequence (P13569 whole entry G551D): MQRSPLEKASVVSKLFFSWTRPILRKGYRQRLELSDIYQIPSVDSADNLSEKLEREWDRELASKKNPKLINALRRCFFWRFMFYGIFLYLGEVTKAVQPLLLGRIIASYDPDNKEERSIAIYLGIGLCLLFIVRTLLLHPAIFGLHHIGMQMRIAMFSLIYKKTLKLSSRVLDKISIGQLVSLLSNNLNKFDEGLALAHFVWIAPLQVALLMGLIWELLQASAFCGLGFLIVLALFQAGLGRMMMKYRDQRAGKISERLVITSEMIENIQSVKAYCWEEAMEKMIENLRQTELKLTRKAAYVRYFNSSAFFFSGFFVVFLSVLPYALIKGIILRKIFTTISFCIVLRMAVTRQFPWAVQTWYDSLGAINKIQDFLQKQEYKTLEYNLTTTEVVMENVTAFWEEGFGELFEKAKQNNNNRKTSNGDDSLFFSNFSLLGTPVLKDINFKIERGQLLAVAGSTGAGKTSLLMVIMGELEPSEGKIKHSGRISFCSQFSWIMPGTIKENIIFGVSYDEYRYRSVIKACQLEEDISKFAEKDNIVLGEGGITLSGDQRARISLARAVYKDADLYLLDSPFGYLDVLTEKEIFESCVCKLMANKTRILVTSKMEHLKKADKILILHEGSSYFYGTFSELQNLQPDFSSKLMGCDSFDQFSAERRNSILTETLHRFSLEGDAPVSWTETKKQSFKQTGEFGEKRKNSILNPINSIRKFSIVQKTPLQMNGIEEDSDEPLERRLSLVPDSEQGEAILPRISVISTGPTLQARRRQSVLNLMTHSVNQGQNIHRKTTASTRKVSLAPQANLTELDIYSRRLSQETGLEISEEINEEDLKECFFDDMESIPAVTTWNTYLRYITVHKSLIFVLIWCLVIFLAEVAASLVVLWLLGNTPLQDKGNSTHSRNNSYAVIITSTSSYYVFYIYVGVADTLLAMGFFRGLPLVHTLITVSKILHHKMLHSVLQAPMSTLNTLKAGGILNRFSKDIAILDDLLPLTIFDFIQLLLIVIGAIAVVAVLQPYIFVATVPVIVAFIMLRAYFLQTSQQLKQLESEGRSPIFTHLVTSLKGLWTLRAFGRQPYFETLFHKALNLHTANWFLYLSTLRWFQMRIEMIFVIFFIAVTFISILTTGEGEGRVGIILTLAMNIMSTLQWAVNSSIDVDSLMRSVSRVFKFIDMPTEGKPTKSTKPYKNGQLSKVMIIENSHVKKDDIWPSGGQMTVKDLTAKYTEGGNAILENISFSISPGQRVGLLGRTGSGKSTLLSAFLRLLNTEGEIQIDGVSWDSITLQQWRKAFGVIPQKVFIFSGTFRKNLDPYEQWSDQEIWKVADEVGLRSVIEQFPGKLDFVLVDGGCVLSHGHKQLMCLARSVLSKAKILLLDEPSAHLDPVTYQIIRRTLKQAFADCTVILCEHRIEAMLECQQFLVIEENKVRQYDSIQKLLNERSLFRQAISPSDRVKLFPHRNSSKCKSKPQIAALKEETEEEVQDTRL
CFTR G551D, sequence (P13569 whole entry G551D): as above

Consider `CCc1cc(C(=O)Nc2sc3c(c2C(N)=O)CC(C)(C)OC3(C)C)n[nH]1` [Compound 17, N-(3-carbamoyl-5,5,7,7-tetramethyl-5,7-dihydro-4H-thieno[2,3-c]pyran-2-yl)-5-ethyl-1H-pyrazole-3-carboxamide], for which the EC50 amounted to 15.5 nM in data set [1], 10.3 nM in data set [2] and 193 nM in data set [3]. In data set [4], the AUC(0-t) was 290 ng·h/mL.

For `CC1(C)Cc2c(sc(NC(=O)c3[nH]ncc3Cl)c2C(N)=O)C(C)(C)O1` [Compound 25, N-(3-carbamoyl-5,5,7,7-tetramethyl-5,7-dihydro-4H-thieno[2,3-c]pyran-2-yl)-4-chloro-1H-pyrazole-3-carboxamide], the EC50 in data set [1] was 4.14 nM; in data set [2] it was 2.25 nM; in data set [3], 80.6 nM; in data set [5] it was 70 nM. This compound also registered an AUC(0-t) in data set [4] of 439 ng·h/mL.
